Measured values reported in ChEMBL document CHEMBL5108044, “Discovery of a Novel Potent STAT3 Inhibitor HP590 with Dual p-Tyr705/Ser727 Inhibitory Activity for Gastric Cancer Treatment” (J Med Chem, 2022).

Experiments:
[1] = target: Signal transducer and activator of transcription 3 (Homo sapiens, UniProt P40763); assay: Inhibition of human recombinant STAT3 (127 to 722 residues) transcriptional activity expressed in HEK293T cells in presence of IL-6 by Dual-luciferase reporter gene assay; format: cell-based
AGS = assay: Antiproliferative activity against human AGS cells assessed as reduction in cell viability incubated for 72 hrs by MTS assay; format: functional, cell-based
MGC-803 = assay: Antiproliferative activity against human MGC-803 cells assessed as reduction in cell viability incubated for 72 hrs by MTS assay; format: functional, cell-based; details: MGC-803, 72 h
[2] = Inhibition of ATP production in human MKN-45 cells incubated for 20 to 24 hrs by ATP assay kit method; format: functional, cell-based
MKN-45 = assay: Antiproliferative activity against human MKN-45 cells assessed as reduction in cell viability incubated for 72 hrs by MTS assay; format: functional, cell-based; details: MKN-45, 72 h

Chain of Signal transducer and activator of transcription 3 (P40763 whole entry, the tested form may be a part): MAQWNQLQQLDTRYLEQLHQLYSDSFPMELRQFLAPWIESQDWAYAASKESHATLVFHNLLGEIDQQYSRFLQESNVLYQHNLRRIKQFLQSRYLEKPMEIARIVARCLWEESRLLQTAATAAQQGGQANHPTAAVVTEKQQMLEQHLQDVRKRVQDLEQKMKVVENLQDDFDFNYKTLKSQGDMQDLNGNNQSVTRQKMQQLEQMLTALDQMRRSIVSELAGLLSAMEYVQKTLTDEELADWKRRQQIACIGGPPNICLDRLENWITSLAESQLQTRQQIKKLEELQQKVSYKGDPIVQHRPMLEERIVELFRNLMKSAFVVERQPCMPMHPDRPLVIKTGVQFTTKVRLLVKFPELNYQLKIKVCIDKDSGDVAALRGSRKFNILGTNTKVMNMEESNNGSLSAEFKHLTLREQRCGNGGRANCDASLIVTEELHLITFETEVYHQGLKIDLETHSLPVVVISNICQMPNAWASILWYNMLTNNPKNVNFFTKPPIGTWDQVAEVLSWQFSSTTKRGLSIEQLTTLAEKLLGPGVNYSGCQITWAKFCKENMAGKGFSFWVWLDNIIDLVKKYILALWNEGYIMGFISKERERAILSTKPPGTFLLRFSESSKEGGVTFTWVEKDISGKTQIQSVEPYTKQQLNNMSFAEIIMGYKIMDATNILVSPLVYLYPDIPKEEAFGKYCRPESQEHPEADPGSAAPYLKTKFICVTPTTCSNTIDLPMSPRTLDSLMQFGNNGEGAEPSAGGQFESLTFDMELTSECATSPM

Row | IC50 [1] [µM] | IC50 (AGS) [µM] | IC50 (MGC-803) [µM] | IC50 [2] [µM] | IC50 (MKN-45) [µM] | SMILES
1 | > 1 | – | – | – | – | O=C(c1ccc(-c2nc(-c3cccs3)no2)nc1)N1CCN(Cc2ccc(OCC(F)(F)F)cc2)CC1
2 | 0.0402 | 0.0778 | 0.0676 | 0.52 | 0.108 | O=C(c1ccc(-c2nc(-c3ccc(C(F)(F)F)cc3)no2)nc1)N1CCN(Cc2ccc(Br)cc2)CC1
3 | 0.0374 | 0.0084 | 0.0115 | 0.0725 | 0.0184 | O=C(c1ccc(-c2nc(-c3ccc(C(F)(F)F)cc3)no2)nc1)N1CCN(Cc2ccc(OCC(F)(F)F)cc2)CC1
4 | > 1 | – | – | – | – | O=C(c1ccc(-c2nc(-c3ccccc3)no2)nc1)N1CCN(Cc2ccc(OCC(F)(F)F)cc2)CC1
5 | > 1 | – | – | – | – | CCN1CCN(C(=O)c2ccc(-c3nc(-c4ccc(C(F)(F)F)cc4)no3)nc2)CC1
6 | 0.113 | – | – | – | – | O=C(c1ccc(-c2cn(-c3ccc(C(F)(F)F)cc3)nn2)nc1)N1CCN(Cc2ccc(OCC(F)(F)F)cc2)CC1
7 | 0.0402 | 0.0215 | 0.0222 | 0.218 | 0.0212 | O=C(c1ccc(-c2nc(-c3ccc(C(F)(F)F)c(F)c3)no2)nc1)N1CCN(Cc2ccc(OCC(F)(F)F)cc2)CC1
8 | > 1 | – | – | – | – | O=C(c1ccc(-c2nc(-c3ccccc3C(F)(F)F)no2)nc1)N1CCN(Cc2ccc(OCC(F)(F)F)cc2)CC1
9 | > 1 | – | – | – | – | O=C(c1ncc(-c2nc(-c3ccc(C(F)(F)F)cc3)no2)s1)N1CCN(Cc2ccc(OCC(F)(F)F)cc2)CC1
10 | 0.296 | – | – | – | – | O=C(c1ccc(-c2nc(-c3ccc(C(F)(F)F)cc3)no2)nc1)N1CCN(Cc2ccc(Br)c(F)c2)CC1
11 | 0.147 | – | – | – | – | COc1ccc(CN2CCN(C(=O)c3ccc(-c4nc(-c5ccc(C(F)(F)F)cc5)no4)nc3)CC2)cc1
12 | > 1 | – | – | – | – | O=C(c1ccc(-c2nc(-c3ccc(C(F)(F)F)cc3)no2)nc1)N1CCN(Cc2ccccc2OCC(F)(F)F)CC1
13 | 0.058 | 0.0272 | 0.0324 | 0.242 | 0.0495 | O=C(c1cnc(-c2noc(-c3ccc(C(F)(F)F)cc3)n2)cn1)N1CCN(Cc2ccc(OCC(F)(F)F)cc2)CC1
14 | > 1 | – | – | – | – | O=C(c1ncccc1-c1nc(-c2ccc(C(F)(F)F)cc2)no1)N1CCN(Cc2ccc(OCC(F)(F)F)cc2)CC1
15 | > 1 | – | – | – | – | O=C(c1ccccc1-c1nc(-c2ccc(C(F)(F)F)cc2)no1)N1CCN(Cc2ccc(OCC(F)(F)F)cc2)CC1
16 | 0.273 | – | – | – | – | CS(=O)(=O)c1ccc(CN2CCN(C(=O)c3ccc(-c4nc(-c5ccc(C(F)(F)F)cc5)no4)nc3)CC2)cc1
17 | 0.123 | – | – | – | – | O=C(c1ccc(-c2nc(-c3ccc(F)cc3)no2)nc1)N1CCN(Cc2ccc(OCC(F)(F)F)cc2)CC1
18 | 0.0636 | 0.0598 | 0.0127 | 0.599 | 0.0164 | O=C(c1ccc(-c2nc(-c3ccc(C(F)(F)F)cc3)no2)nc1)N1CCN(Cc2ccc(OC(F)(F)F)cc2)CC1
19 | 0.173 | – | – | – | – | O=C(/C=C/c1ccc(OC(F)(F)F)cc1)N1CCN(C(=O)c2ccc(-c3nc(-c4ccc(C(F)(F)F)cc4)no3)nc2)CC1
20 | 0.0521 | 0.0271 | 0.0281 | 0.0559 | 0.0416 | O=C(c1cccc(-c2nc(-c3ccc(C(F)(F)F)cc3)no2)c1)N1CCN(Cc2ccc(OCC(F)(F)F)cc2)CC1
21 | > 1 | – | – | – | – | O=C(c1ccc(OC(F)(F)F)cc1)N1CCN(C(=O)c2ccc(-c3nc(-c4ccc(C(F)(F)F)cc4)no3)nc2)CC1
22 | > 1 | – | – | – | – | O=C(c1ccc(-c2nc(-c3cncs3)no2)nc1)N1CCN(Cc2ccc(OCC(F)(F)F)cc2)CC1
23 | 0.271 | – | – | – | – | O=C(c1ccc(-c2nc(-c3ccc(Cl)cc3)no2)nc1)N1CCN(Cc2ccc(OCC(F)(F)F)cc2)CC1
24 | 0.325 | – | – | – | – | O=C(c1ccc(-c2nc(-c3ccc(C(F)(F)F)cc3)no2)nc1)N1CCN(Cc2cccc(OC(F)(F)F)c2)CC1
25 | 0.108 | – | – | – | – | O=C(c1ccc(-c2nc(-c3ccc(C(F)(F)F)cc3)no2)nc1)N1CCN(Cc2ccc(Cl)cc2)CC1
26 | > 1 | – | – | – | – | O=C(c1ccc(-c2nc(-c3ccc(C(F)(F)F)cc3)no2)nc1)N1CCN(Cc2ccc(NCC(F)(F)F)cc2)CC1
27 | > 1 | – | – | – | – | CC(C)(C)c1ccc(-c2noc(-c3ccc(C(=O)N4CCN(Cc5ccc(OCC(F)(F)F)cc5)CC4)cn3)n2)cc1
28 | 0.516 | – | – | – | – | O=C(c1ccc(-c2nc(-c3ccc(C(F)(F)F)cc3)cs2)nc1)N1CCN(Cc2ccc(OCC(F)(F)F)cc2)CC1

Row | IC50 [1] [µM] | IC50 (AGS) [µM] | IC50 (MGC-803) [µM] | IC50 [2] [µM] | IC50 (MKN-45) [µM] | SMILES
29 | 0.304 | – | – | – | – | O=C(c1ccc(-c2nc(-c3ccc(C(F)(F)F)cc3)no2)nc1)N1CCN(Cc2ccc(F)cc2)CC1
30 | 0.182 | – | – | – | – | Cc1ccc(CN2CCN(C(=O)c3ccc(-c4nc(-c5ccc(C(F)(F)F)cc5)no4)nc3)CC2)cc1
31 | > 1 | – | – | – | – | O=C(c1ccc(-c2nc(-c3ccc(C(F)(F)F)cc3C(F)(F)F)no2)nc1)N1CCN(Cc2ccc(OCC(F)(F)F)cc2)CC1
32 | > 1 | – | – | – | – | O=C(c1ccc(-c2nc(-c3ccc(C(F)(F)F)cc3)no2)nc1)N1CCN(Cc2ccccc2OC(F)(F)F)CC1
33 | 0.0881 | 0.0676 | 0.0318 | 0.2 | 0.0545 | CC(C)(C)c1ccc(CN2CCN(C(=O)c3ccc(-c4nc(-c5ccc(C(F)(F)F)cc5)no4)nc3)CC2)cc1
34 | 0.0602 | 0.0235 | 0.0233 | 0.0932 | 0.0364 | O=C(c1ccc(-c2nc(-c3ccc(OC(F)(F)F)cc3)no2)nc1)N1CCN(Cc2ccc(OCC(F)(F)F)cc2)CC1
35 | 0.564 | – | – | – | – | O=C(c1ccc(-c2nc(-c3ccc(C(F)(F)F)cc3)no2)nc1)N1CCN(Cc2ccc(Br)cc2F)CC1
36 | 0.533 | – | – | – | – | CCCN1CCN(C(=O)c2ccc(-c3nc(-c4ccc(C(F)(F)F)cc4)no3)nc2)CC1
37 | 0.113 | – | – | – | – | COc1ccc(-c2noc(-c3ccc(C(=O)N4CCN(Cc5ccc(OCC(F)(F)F)cc5)CC4)cn3)n2)cc1
38 | – | 0.437 | 0.872 | – | 3.94 | CC(=O)c1cc2c(o1)C(=O)c1ccccc1C2=O [NAPABUCASIN]
39 | 0.477 | – | – | – | – | N#Cc1ccc(CN2CCN(C(=O)c3ccc(-c4nc(-c5ccc(C(F)(F)F)cc5)no4)nc3)CC2)cc1
40 | > 1 | – | – | – | – | O=C(c1ccc(-c2nc(-c3ncccn3)no2)nc1)N1CCN(Cc2ccc(OCC(F)(F)F)cc2)CC1
41 | 0.0941 | – | – | – | – | O=C(c1ccc(-c2nc(-c3ccc(C(F)(F)F)cc3)co2)nc1)N1CCN(Cc2ccc(OCC(F)(F)F)cc2)CC1
42 | > 1 | – | – | – | – | O=C(c1ccc(-c2nc(-c3ccccc3F)no2)nc1)N1CCN(Cc2ccc(OCC(F)(F)F)cc2)CC1
43 | 0.177 | – | – | – | – | O=C(c1ccc(-c2nc(-c3cccc(F)c3)no2)nc1)N1CCN(Cc2ccc(OCC(F)(F)F)cc2)CC1
44 | 0.13 | – | – | – | – | O=C(c1ccc(-c2nc(-c3cccc(C(F)(F)F)c3)no2)nc1)N1CCN(Cc2ccc(OCC(F)(F)F)cc2)CC1
45 | 0.359 | – | – | – | – | O=C(Cc1ccc(OC(F)(F)F)cc1)N1CCN(C(=O)c2ccc(-c3nc(-c4ccc(C(F)(F)F)cc4)no3)nc2)CC1
46 | 0.258 | – | – | – | – | Cc1ccc(-c2noc(-c3ccc(C(=O)N4CCN(Cc5ccc(OCC(F)(F)F)cc5)CC4)cn3)n2)cc1
47 | > 1 | – | – | – | – | Nc1ccc(CN2CCN(C(=O)c3ccc(-c4nc(-c5ccc(C(F)(F)F)cc5)no4)nc3)CC2)cc1
48 | > 1 | – | – | – | – | O=C(c1ccc(-c2nc(-c3ccc(C(F)(F)F)cc3)no2)nc1)N1CCN(Cc2c(F)cc(Br)cc2F)CC1
49 | 0.167 | – | – | – | – | O=C(c1ccc(-c2nc(-c3ccc(C(F)(F)F)cc3)no2)s1)N1CCN(Cc2ccc(OCC(F)(F)F)cc2)CC1
50 | 2.79 | – | – | – | – | CN1CCN(C(=O)c2ccc(-c3nc(-c4ccc(C(F)(F)F)cc4)no3)nc2)CC1
51 | 0.0932 | – | – | – | – | O=C(c1ccc(-c2nc(-c3ccc(Br)cc3)no2)nc1)N1CCN(Cc2ccc(OCC(F)(F)F)cc2)CC1
52 | 0.803 | – | – | – | – | O=C(c1ccc(-c2nc(-c3ccc(C(F)(F)F)cc3)no2)nc1)N1CCN(Cc2cccc(OCC(F)(F)F)c2)CC1
53 | 0.0759 | 0.0228 | 0.0153 | 0.0978 | 0.0246 | O=C(c1ccc(-c2nc(-c3ccc(C(F)(F)F)cc3)no2)cn1)N1CCN(Cc2ccc(OCC(F)(F)F)cc2)CC1
54 | 0.0323 | 0.0087 | 0.0131 | 0.0876 | 0.153 | O=C(c1cc(-c2nc(-c3ccc(C(F)(F)F)cc3)no2)ccn1)N1CCN(Cc2ccc(OCC(F)(F)F)cc2)CC1
55 | 0.306 | – | – | – | – | CC(=O)Oc1ccc(CN2CCN(C(=O)c3ccc(-c4nc(-c5ccc(C(F)(F)F)cc5)no4)nc3)CC2)cc1
